Earlier results on one compound are cited in US20090036693A1, “METHOD OF PURIFYING UBIQUINONE-10” (Kyowa Hakko Kogyo Co., Ltd., priority 2005, published 2009).

Structures are written as SMILES. Where only a bound is given, the exact number is not on record here.

For the series the following is noted: solvent methanol; background statement.

On to `COC1=C(OC)C(=O)C(C/C=C(\C)CC/C=C(\C)CC/C=C(\C)CC/C=C(\C)CC/C=C(\C)CC/C=C(\C)CC/C=C(\C)CC/C=C(\C)CC/C=C(\C)CCC=C(C)C)=C(C)C1=O` [ubiquinone-10], for which the solubility in methanol was ≤ 5000 µg/mL.
